The nature of this series: Assay (IV) determination of solubility. It counts as physicochemical. As for the experimental part: Assay (IV)—Determination of Solubility
The mimylin peptide was dissolved in water at ˜500 nmol/ml and mixed 1:1 with a series of buffers (100 mM glycylglycine pH 3.0, 100 mM glycylglycine pH 4.0, 100 mM glycylglycine pH 5.0, 100 mM bistrispropane pH 6.0, 100 mM bistrispropane pH 6.5, 100 mM bistrispropane pH 7.0, 100 mM bistrispropane pH 7.5, 100 mM bistrispropane pH 8.0).

≈ marks a conversion by molar mass, not a printed value. Numbered stars: 1 amine (or outer) side, 2 acyl side, 3 side chain; on linkers, the order of the positions; unused ones are H or OH. Peptide text beside a SMILES is read from it. * marks the point of attachment. C20 diacid = O=C(O)CCCCCCCCCCCCCCCCCCC(=O)*; C18 diacid = O=C(O)CCCCCCCCCCCCCCCCC(=O)*; γGlu = O=C(O)[C@H](CCC(=O)[*:2])N[*:1]

By solubility is commonly meant the dissolved amount per volume that the medium holds. Read a high solubility as a readily soluble substance.

Regarding `CC(C)C[C@H](NC(=O)[C@H](C)NC(=O)[C@H](C)NC(=O)[C@@H](NC(=O)[C@H](CO)NC(=O)[C@H](CC(C)C)NC(=O)[C@H](CCC(=O)O)NC(=O)[C@H](CO)NC(=O)[C@H](C)NC(=O)CC[C@H](NC(=O)CCCCCCCCCCCCCCCCCCC(=O)O)C(=O)O)[C@@H](C)O)C(=O)NCC(=O)N[C@@H](CCCNC(=N)N)C(=O)N[C@@H](CC(C)C)C(=O)N[C@@H](CO)C(=O)N[C@@H](C)C(=O)N[C@@H](CCC(=O)O)C(=O)N[C@@H](CC(C)C)C(=O)N[C@@H](Cc1cnc[nH]1)C(=O)N[C@@H](CCC(=O)O)C(=O)N[C@@H](CC(C)C)C(=O)N[C@@H](C)C(=O)N[C@H](C(=O)N[C@@H](CC(C)C)C(=O)N1CCC[C@H]1C(=O)N[C@@H](CCCNC(=N)N)C(=O)N[C@H](C(=O)N[C@@H](CCC(=O)O)C(=O)N[C@H](C(=O)NCC(=O)N[C@H](C(=O)NCC(=O)N[C@H](C(=O)N1CCC[C@H]1C(N)=O)[C@@H](C)O)[C@@H](C)O)[C@@H](C)O)[C@@H](C)O)[C@@H](C)O` [compound 74, [N-terminal(C20 diacid-gGlu), des1, 30T, 31G, 32T]mimylin] ({C20 diacid-γGlu}-ASELSTAALGRLSAELHELATLPRTETGTGTP-NH2), the Solubility result was “≧200 μM” (pH 3.0); “≧200 μM” (pH 4.0); “≧200 μM” (pH 5.0); “≧200 μM” (pH 6.0); “≧200 μM” (pH 6.5); “≧200 μM” (pH 7.0). For the same compound, the Solubility entry was “≧200 μM” (pH 7.5) and “≧200 μM” (pH 8.0).
Regarding `CC(C)C[C@H](NC(=O)[C@H](C)NC(=O)[C@H](C)NC(=O)[C@@H](NC(=O)[C@H](CO)NC(=O)[C@H](CC(C)C)NC(=O)[C@H](CCC(=O)O)NC(=O)[C@H](CO)NC(=O)[C@H](C)NC(=O)CC[C@H](NC(=O)CCCCCCCCCCCCCCCCC(=O)O)C(=O)O)[C@@H](C)O)C(=O)NCC(=O)N[C@@H](CCCNC(=N)N)C(=O)N[C@@H](CC(C)C)C(=O)N[C@@H](CO)C(=O)N[C@@H](C)C(=O)N[C@@H](CCC(=O)O)C(=O)N[C@@H](CC(C)C)C(=O)N[C@@H](Cc1cnc[nH]1)C(=O)N[C@@H](CCC(=O)O)C(=O)N[C@@H](CC(C)C)C(=O)N[C@@H](C)C(=O)N[C@H](C(=O)N[C@@H](CC(C)C)C(=O)N1CCC[C@H]1C(=O)N[C@@H](CCCNC(=N)N)C(=O)N[C@H](C(=O)N[C@@H](CCC(=O)O)C(=O)N[C@H](C(=O)NCC(=O)N[C@@H](CO)C(=O)NCC(=O)N1CCC[C@H]1C(=O)N1CCC[C@H]1C(N)=O)[C@@H](C)O)[C@@H](C)O)[C@@H](C)O` [compound 75, [N-terminal(C18 diacid-gGlu), des1, 30S, 31G, 32P]mimylin] ({C18 diacid-γGlu}-ASELSTAALGRLSAELHELATLPRTETGSGPP-NH2), the Solubility result (pH 3.0) is “≧200 μM”; the Solubility entry (pH 4.0) was “≧200 μM”; the Solubility result (pH 5.0) is given as “≧200 μM”; the Solubility result (pH 6.0) was “≧200 μM”; the Solubility entry (pH 6.5) was “≧200 μM”; the Solubility entry (pH 7.0) was “≧200 μM”. The Solubility result by setting is: (pH 7.5) “≧200 μM”; (pH 8.0) “≧200 μM”.
Take `CC(C)C[C@H](NC(=O)CC[C@H](NC(=O)CCCCCCCCCCCCCCCCCCC(=O)O)C(=O)O)C(=O)N[C@@H](CO)C(=O)NCC(=O)N[C@@H](CC(C)C)C(=O)N[C@@H](CO)C(=O)N[C@H](C(=O)N[C@@H](C)C(=O)N[C@H](C(=O)N[C@@H](CC(C)C)C(=O)NCC(=O)N[C@@H](CCCNC(=N)N)C(=O)N[C@@H](CC(C)C)C(=O)N[C@@H](CO)C(=O)N[C@@H](C)C(=O)N[C@@H](CCC(=O)O)C(=O)N[C@@H](CC(C)C)C(=O)N[C@@H](Cc1cnc[nH]1)C(=O)N[C@@H](CCC(=O)O)C(=O)N[C@@H](CC(C)C)C(=O)N[C@@H](CO)C(=O)N[C@H](C(=O)N[C@@H](Cc1ccc(O)cc1)C(=O)N1CCC[C@H]1C(=O)N[C@@H](CCCNC(=N)N)C(=O)N[C@H](C(=O)N[C@@H](CCC(=O)O)C(=O)N[C@H](C(=O)NCC(=O)N[C@@H](CO)C(=O)NCC(=O)N[C@H](C(=O)N[C@@H](Cc1ccc(O)cc1)C(N)=O)[C@@H](C)O)[C@@H](C)O)[C@@H](C)O)[C@@H](C)O)C(C)C)[C@@H](C)O` [compound 123, [N-terminal(C20 diacid-gGlu), des1, 2L, 4G, 9V, 21S, 23Y, 30S, 31G, 32T, 33Y]mimylin] ({C20 diacid-γGlu}-LSGLSTAVLGRLSAELHELSTYPRTETGSGTY-NH2): the Solubility entry is, setting by setting: (pH 3.0) “≧200 μM”; (pH 4.0) “≧200 μM”; (pH 6.0) “≧200 μM”; (pH 6.5) “≧200 μM”; (pH 7.0) “≧200 μM”; (pH 7.5) “≧200 μM”. For the same compound, the Solubility entry (pH 8.0) is given as “≧200 μM”. The solubility at 18 h (pH 5.0) turned out to be 2 µM (≈ 7.64 µg/mL).
For `CC(C)C[C@H](NC(=O)[C@H](C)NC(=O)[C@H](C)NC(=O)[C@@H](NC(=O)[C@H](CO)NC(=O)[C@H](CC(C)C)NC(=O)[C@H](CCC(=O)O)NC(=O)[C@H](CO)NC(=O)[C@H](C)NC(=O)CC[C@H](NC(=O)CCCCCCCCCCCCCCCCCCC(=O)O)C(=O)O)[C@@H](C)O)C(=O)NCC(=O)N[C@@H](CCCNC(=N)N)C(=O)N[C@@H](CC(C)C)C(=O)N[C@@H](CO)C(=O)N[C@@H](C)C(=O)N[C@@H](CCC(=O)O)C(=O)N[C@@H](CC(C)C)C(=O)N[C@@H](Cc1cnc[nH]1)C(=O)N[C@@H](CCC(=O)O)C(=O)N[C@@H](CC(C)C)C(=O)N[C@@H](C)C(=O)N[C@H](C(=O)N[C@@H](CC(C)C)C(=O)N1CCC[C@H]1C(=O)N[C@@H](CCCNC(=N)N)C(=O)N[C@H](C(=O)N[C@@H](CCC(=O)O)C(=O)N[C@H](C(=O)NCC(=O)N[C@@H](CO)C(=O)NCC(=O)N[C@@H](CO)C(=O)NCC(N)=O)[C@@H](C)O)[C@@H](C)O)[C@@H](C)O` [compound 64, [N-terminal(C20 diacid-gGlu), des1, 30S, 31G, 33G]mimylin] ({C20 diacid-γGlu}-ASELSTAALGRLSAELHELATLPRTETGSGSG-NH2), the Solubility entry (pH 3.0) was “≧200 μM”; the Solubility entry (pH 4.0) was “≧200 μM”; the Solubility result (pH 5.0) is on record as “≧200 μM”; the Solubility entry (pH 6.0) was “≧200 μM”; the Solubility entry (pH 6.5) was “≧200 μM”; the Solubility entry (pH 7.0) was “≧200 μM”. Moreover, the Solubility result (pH 7.5) is “≧200 μM” and the Solubility entry (pH 8.0) is “≧200 μM”.
On to `CC(C)C[C@H](NC(=O)[C@H](C)NC(=O)[C@H](C)NC(=O)[C@@H](NC(=O)[C@H](CO)NC(=O)[C@H](CC(C)C)NC(=O)[C@H](CCC(=O)O)NC(=O)[C@H](CO)NC(=O)[C@H](C)NC(=O)CC[C@H](NC(=O)CCCCCCCCCCCCCCCCCCC(=O)O)C(=O)O)[C@@H](C)O)C(=O)NCC(=O)N[C@@H](CCCNC(=N)N)C(=O)N[C@@H](CC(C)C)C(=O)N[C@@H](CO)C(=O)N[C@@H](C)C(=O)N[C@@H](CCC(=O)O)C(=O)N[C@@H](CC(C)C)C(=O)N[C@@H](Cc1cnc[nH]1)C(=O)N[C@@H](CCC(=O)O)C(=O)N[C@@H](CC(C)C)C(=O)N[C@@H](C)C(=O)N[C@H](C(=O)N[C@@H](CC(C)C)C(=O)N1CCC[C@H]1C(=O)N[C@@H](CCCNC(=N)N)C(=O)N[C@H](C(=O)N[C@@H](CCC(=O)O)C(=O)N[C@H](C(=O)NCC(=O)N[C@@H](CO)C(=O)NCC(=O)N[C@@H](CO)C(=O)N[C@@H](CO)C(N)=O)[C@@H](C)O)[C@@H](C)O)[C@@H](C)O` [compound 63, [N-terminal(C20 diacid-gGlu), des1, 30S, 31G, 33S]mimylin] ({C20 diacid-γGlu}-ASELSTAALGRLSAELHELATLPRTETGSGSS-NH2), for which the Solubility result is reported as “≧200 μM” (pH 3.0); “≧200 μM” (pH 4.0); “≧200 μM” (pH 5.0); “≧200 μM” (pH 6.0); “≧200 μM” (pH 6.5); “≧200 μM” (pH 7.0). The Solubility entry is, setting by setting: (pH 7.5) “≧200 μM”; (pH 8.0) “≧200 μM”.
Turning to `CC(C)C[C@H](NC(=O)[C@H](CCC(=O)O)NC(=O)[C@H](Cc1cnc[nH]1)NC(=O)[C@H](CC(C)C)NC(=O)[C@H](CCC(=O)O)NC(=O)[C@H](C)NC(=O)[C@H](CO)NC(=O)[C@H](CC(C)C)NC(=O)[C@H](CCCNC(=N)N)NC(=O)CNC(=O)[C@H](CC(C)C)NC(=O)[C@@H](NC(=O)[C@H](C)NC(=O)[C@@H](NC(=O)[C@H](CO)NC(=O)[C@@H](NC(=O)[C@H](CCC(=O)O)NC(=O)[C@H](CO)NC(=O)[C@H](C)NC(=O)[C@H](CCC(=O)O)NC(=O)CCCCCCCCCCCCCCCCC(=O)O)C(C)C)[C@@H](C)O)C(C)C)C(=O)N[C@@H](C)C(=O)N[C@H](C(=O)N[C@@H](CC(C)C)C(=O)N1CCC[C@H]1C(=O)N[C@@H](CCCNC(=N)N)C(=O)N[C@H](C(=O)N[C@@H](CCC(=O)O)C(=O)N[C@H](C(=O)NCC(=O)N1CCC[C@H]1C(=O)N[C@@H](CCC(=O)O)C(=O)N[C@@H](CO)C(=O)N1CCC[C@H]1C(N)=O)[C@@H](C)O)[C@@H](C)O)[C@@H](C)O` [compound 24, [N-terminal(C18 diacid), 5V, 9V]mimylin] ({C18 diacid}-EASEVSTAVLGRLSAELHELATLPRTETGPESP-NH2), the Solubility entry is reported as “≧200 μM” (pH 3.0); “≧200 μM” (pH 6.0); “≧200 μM” (pH 6.5); “≧200 μM” (pH 7.0); “≧200 μM” (pH 7.5); “≧200 μM” (pH 8.0). Further, the solubility at 18 h turned out to be 150 µM (≈ 562 µg/mL) (pH 4.0) and 145 µM (≈ 543 µg/mL) (pH 5.0).

(Values after patent US9593149B2, “Amylin and calcitonin receptor agonist” (Novo Nordisk A/S, priority 2014, dated 2017).)
